Results as given in ChEMBL document CHEMBL4507276 (2021).

Key:
[1] = molecular target: Beta-1 adrenergic receptor (Homo sapiens) (UniProt P08588); details: Compound concentration 10.0 uM
[2] = molecular target: Casein kinase I isoform gamma-1 (Homo sapiens) (UniProt Q9HCP0); assay: CSNK1G1 Invitrogen selectivity data (BI); details: Compound concentration 3.0 uM
[3] = molecular target: T1, Serine/threonine-protein kinase haspin (Homo sapiens) (UniProt Q8TF76); assay: GSG2 Invitrogen selectivity data (BI); details: Compound concentration 3.0 uM
T1 sequence (whole entry): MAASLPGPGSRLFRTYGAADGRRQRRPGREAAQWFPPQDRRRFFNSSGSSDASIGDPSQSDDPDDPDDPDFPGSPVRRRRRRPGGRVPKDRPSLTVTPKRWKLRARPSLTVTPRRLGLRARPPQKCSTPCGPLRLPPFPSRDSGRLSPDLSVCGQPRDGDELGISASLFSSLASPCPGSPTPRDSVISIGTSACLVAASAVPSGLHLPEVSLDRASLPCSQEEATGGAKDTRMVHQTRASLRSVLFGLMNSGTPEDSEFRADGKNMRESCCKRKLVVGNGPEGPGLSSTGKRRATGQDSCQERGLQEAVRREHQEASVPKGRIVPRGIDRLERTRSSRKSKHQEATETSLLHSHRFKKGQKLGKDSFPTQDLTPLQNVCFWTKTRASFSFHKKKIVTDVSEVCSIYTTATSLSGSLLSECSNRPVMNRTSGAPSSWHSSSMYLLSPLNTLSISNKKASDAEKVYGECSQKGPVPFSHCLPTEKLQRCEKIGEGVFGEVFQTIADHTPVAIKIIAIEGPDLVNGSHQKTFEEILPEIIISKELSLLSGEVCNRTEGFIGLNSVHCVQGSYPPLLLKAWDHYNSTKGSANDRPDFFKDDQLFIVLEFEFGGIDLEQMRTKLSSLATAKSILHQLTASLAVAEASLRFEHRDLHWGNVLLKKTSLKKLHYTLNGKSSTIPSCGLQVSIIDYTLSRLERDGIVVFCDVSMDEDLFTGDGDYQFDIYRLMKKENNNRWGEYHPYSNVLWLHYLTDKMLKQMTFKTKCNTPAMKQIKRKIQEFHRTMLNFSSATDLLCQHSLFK

[4] = molecular target: PI3-kinase p110-delta/p85-alpha (Homo sapiens) (UniProt P27986+O00329); assay: PIK3CDPIK3R1 Invitrogen selectivity data (BI); assay type: protein-complex assay; details: Compound concentration 3.0 uM
[5] = molecular target: Sodium-dependent dopamine transporter (Homo sapiens, UniProt Q01959); assay: DATRANS/H Eurofins-Panlabs selectivity data (BI); details: Compound concentration 10.0 uM
Sequence of Sodium-dependent dopamine transporter (Q01959 whole entry): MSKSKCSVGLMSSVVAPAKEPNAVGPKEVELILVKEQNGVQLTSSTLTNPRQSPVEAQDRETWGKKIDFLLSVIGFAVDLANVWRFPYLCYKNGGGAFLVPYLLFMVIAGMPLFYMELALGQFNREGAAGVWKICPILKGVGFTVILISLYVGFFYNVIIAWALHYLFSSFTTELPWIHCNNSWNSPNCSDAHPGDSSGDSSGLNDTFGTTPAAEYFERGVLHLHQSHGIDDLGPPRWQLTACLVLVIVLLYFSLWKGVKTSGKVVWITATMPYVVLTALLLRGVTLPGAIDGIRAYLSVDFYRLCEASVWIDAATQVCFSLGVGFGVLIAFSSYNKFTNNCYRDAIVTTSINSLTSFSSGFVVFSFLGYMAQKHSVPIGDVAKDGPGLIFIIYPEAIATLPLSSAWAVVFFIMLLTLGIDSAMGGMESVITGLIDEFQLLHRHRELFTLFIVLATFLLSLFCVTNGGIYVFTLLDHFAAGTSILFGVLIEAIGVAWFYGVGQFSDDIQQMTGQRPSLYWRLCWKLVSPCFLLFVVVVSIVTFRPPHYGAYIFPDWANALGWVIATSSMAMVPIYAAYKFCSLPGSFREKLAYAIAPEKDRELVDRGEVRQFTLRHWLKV

[6] = molecular target: Insulin receptor (Homo sapiens) (UniProt P06213); assay: INSR Invitrogen selectivity data (BI); details: Compound concentration 3.0 uM
[7] = molecular target: Protein-tyrosine kinase 6 (Homo sapiens) (UniProt Q13882); assay: PTK6 Invitrogen selectivity data (BI); details: Compound concentration 3.0 uM
Sequence of Protein-tyrosine kinase 6 (Homo sapiens) (Q13882 whole entry, looked up): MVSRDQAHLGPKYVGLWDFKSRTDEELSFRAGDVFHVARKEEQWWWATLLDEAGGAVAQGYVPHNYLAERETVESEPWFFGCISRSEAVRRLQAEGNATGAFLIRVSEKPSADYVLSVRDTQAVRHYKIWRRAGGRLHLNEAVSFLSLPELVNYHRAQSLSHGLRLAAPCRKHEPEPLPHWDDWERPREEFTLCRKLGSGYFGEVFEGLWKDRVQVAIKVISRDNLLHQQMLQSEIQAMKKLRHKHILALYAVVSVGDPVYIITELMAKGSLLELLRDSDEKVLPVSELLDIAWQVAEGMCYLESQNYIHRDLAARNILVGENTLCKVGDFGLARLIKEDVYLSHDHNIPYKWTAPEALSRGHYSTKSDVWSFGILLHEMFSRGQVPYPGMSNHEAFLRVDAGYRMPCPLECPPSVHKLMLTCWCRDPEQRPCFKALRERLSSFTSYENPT

[8] = molecular target: Dual specificity protein kinase CLK3 (Homo sapiens) (UniProt P49761); assay: CLK3 Invitrogen selectivity data (BI); details: Compound concentration 3.0 uM
Sequence of Dual specificity protein kinase CLK3 (Homo sapiens) (P49761 whole entry, looked up): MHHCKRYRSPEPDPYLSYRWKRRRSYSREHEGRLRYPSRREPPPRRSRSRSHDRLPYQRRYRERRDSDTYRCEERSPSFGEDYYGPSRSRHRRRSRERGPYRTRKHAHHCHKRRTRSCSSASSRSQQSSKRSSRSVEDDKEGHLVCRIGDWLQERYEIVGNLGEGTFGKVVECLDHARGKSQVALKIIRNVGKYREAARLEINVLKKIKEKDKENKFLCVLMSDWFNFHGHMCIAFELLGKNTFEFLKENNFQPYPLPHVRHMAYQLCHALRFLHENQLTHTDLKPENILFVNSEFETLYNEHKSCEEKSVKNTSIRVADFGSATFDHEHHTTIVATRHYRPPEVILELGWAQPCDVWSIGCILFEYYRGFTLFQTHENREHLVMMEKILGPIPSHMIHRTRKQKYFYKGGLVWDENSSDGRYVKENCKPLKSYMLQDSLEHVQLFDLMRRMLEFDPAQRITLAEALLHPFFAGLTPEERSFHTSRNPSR

[9] = molecular target: T2, Muscarinic acetylcholine receptor M1 (Homo sapiens) (UniProt P11229); assay: M1/HU Eurofins-Panlabs selectivity data (BI); details: Compound concentration 10.0 uM
T2 sequence (whole entry): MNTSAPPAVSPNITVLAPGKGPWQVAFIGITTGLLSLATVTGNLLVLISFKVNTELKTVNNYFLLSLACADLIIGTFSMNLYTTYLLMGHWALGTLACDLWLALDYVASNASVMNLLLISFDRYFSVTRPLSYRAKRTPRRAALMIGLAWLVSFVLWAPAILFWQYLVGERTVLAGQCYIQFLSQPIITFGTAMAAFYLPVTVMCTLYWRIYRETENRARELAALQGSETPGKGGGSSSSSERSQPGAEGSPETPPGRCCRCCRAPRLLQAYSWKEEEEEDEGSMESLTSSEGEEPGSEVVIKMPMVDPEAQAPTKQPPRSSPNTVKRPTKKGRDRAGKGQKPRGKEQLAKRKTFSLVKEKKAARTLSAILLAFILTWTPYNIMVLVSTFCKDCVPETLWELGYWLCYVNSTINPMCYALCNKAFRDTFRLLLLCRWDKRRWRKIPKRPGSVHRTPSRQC

[10] = molecular target: Mitogen-activated protein kinase 14 (Homo sapiens) (UniProt Q16539); assay: MAPK14P38A Invitrogen selectivity data (BI); details: Compound concentration 3.0 uM
Sequence of Mitogen-activated protein kinase 14 (Homo sapiens) (Q16539 whole entry): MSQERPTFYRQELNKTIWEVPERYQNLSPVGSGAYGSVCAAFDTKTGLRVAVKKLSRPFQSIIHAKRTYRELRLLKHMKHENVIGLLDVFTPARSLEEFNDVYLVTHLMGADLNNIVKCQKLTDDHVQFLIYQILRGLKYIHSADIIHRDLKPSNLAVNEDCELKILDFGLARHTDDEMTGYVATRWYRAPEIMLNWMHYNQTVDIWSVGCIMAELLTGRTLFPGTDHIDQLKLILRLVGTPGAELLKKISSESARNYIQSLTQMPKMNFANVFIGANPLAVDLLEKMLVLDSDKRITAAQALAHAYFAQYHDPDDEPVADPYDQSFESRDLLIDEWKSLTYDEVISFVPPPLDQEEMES

[11] = molecular target: Sodium-dependent serotonin transporter (Homo sapiens) (UniProt P31645); assay: 5HTTRANS/HU Eurofins-Panlabs selectivity data (BI); details: Compound concentration 10.0 uM
Sequence of Sodium-dependent serotonin transporter (Homo sapiens) (P31645 whole entry, looked up): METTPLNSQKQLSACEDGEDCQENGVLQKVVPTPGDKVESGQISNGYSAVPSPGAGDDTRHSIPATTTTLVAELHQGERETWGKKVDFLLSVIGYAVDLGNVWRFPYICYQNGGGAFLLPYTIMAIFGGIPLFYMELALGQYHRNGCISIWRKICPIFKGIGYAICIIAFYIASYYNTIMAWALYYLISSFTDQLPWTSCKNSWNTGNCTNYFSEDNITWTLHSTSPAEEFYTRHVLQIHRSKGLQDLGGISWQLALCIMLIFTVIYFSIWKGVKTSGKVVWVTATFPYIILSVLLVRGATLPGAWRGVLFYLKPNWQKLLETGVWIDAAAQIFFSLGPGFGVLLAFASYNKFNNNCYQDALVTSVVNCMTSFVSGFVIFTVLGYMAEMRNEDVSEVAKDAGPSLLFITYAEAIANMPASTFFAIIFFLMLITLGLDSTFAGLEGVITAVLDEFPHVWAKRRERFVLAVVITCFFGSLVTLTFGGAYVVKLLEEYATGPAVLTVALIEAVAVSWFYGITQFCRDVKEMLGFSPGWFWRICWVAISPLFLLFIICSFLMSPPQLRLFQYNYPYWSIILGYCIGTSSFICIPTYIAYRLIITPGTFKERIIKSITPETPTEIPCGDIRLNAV

[12] = molecular target: T3, Inhibitor of nuclear factor kappa-B kinase subunit beta (Homo sapiens) (UniProt O14920); assay: IKBKB Invitrogen selectivity data (BI); details: Compound concentration 3.0 uM
T3 sequence (whole entry): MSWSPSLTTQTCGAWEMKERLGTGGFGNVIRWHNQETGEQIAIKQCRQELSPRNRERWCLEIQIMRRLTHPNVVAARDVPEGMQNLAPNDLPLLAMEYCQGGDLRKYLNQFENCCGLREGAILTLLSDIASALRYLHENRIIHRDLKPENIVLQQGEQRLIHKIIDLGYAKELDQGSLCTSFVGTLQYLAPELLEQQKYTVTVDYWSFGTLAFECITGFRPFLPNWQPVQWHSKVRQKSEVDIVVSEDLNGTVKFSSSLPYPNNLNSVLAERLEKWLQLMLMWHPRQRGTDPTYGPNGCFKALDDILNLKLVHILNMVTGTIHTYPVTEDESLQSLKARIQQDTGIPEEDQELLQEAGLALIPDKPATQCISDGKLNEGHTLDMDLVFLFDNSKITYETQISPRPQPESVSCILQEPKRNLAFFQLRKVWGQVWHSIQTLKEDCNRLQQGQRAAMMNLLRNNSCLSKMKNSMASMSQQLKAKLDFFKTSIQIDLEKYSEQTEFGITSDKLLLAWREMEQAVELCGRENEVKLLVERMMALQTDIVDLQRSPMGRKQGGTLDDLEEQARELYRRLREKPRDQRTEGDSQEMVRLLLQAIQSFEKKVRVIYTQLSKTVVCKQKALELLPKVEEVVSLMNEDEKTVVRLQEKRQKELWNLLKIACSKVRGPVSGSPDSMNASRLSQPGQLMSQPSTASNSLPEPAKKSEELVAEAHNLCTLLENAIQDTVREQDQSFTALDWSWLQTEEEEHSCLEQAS

[13] = molecular target: RAF proto-oncogene serine/threonine-protein kinase (Homo sapiens) (UniProt P04049); assay: RAF1_Y_D Invitrogen selectivity data (BI); details: Compound concentration 3.0 uM
Sequence of RAF proto-oncogene serine/threonine-protein kinase (Homo sapiens) (P04049 whole entry): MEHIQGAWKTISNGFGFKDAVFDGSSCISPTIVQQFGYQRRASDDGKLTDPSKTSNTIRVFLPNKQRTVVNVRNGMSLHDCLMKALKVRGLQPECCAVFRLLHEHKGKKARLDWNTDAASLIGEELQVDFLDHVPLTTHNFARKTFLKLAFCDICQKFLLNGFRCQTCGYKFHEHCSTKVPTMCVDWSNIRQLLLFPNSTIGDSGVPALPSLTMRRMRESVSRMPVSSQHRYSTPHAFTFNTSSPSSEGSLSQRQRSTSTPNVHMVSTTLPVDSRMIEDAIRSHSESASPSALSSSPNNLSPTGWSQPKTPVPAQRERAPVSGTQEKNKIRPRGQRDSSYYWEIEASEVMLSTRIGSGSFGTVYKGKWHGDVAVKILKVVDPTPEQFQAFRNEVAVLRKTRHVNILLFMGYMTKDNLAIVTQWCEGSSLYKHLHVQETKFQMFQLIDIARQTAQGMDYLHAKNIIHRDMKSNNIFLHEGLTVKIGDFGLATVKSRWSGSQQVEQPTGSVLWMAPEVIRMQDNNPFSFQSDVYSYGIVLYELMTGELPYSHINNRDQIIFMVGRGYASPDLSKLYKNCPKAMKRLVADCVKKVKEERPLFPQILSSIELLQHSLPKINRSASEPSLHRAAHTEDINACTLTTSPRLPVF

Sequence of Beta-1 adrenergic receptor (Homo sapiens) (P08588 whole entry, looked up, canonical isoform): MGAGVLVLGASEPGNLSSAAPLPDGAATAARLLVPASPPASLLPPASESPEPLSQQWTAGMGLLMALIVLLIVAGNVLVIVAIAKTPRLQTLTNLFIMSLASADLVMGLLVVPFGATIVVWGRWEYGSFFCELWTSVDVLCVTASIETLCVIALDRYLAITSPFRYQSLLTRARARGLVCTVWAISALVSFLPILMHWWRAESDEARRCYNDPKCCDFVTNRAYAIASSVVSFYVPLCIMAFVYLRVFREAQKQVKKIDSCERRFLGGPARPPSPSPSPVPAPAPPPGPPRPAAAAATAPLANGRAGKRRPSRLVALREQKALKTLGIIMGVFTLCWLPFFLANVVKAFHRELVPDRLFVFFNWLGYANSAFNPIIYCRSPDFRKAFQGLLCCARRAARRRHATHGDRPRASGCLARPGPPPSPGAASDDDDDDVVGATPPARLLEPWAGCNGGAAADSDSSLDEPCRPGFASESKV
Sequence of Casein kinase I isoform gamma-1 (Homo sapiens) (Q9HCP0 whole entry, looked up, canonical isoform): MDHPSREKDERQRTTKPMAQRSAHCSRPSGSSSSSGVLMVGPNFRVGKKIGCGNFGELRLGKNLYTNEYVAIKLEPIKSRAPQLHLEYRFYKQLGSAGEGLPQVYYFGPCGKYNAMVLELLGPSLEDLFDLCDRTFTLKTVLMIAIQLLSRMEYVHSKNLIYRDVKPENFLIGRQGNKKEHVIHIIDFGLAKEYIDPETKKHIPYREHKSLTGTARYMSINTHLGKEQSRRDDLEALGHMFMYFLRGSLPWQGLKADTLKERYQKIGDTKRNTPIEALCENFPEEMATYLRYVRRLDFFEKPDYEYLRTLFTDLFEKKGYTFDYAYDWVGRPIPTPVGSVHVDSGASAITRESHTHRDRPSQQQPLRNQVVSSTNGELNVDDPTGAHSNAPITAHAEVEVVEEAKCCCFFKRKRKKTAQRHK

CN(C)C(=O)Cn1cc(-c2nc(C3(c4ccc(-c5cnc(N)nc5)cc4)CC3)no2)cn1 [BI 0153]
inactive: inhibition [1] 7.58%

CN(C)C(=O)Cn1cc(-c2nc([C@@](C)(c3ccc(-c4cnc(N)nc4)cc3)C3CC3)no2)cn1 [BI 665915]
inactive: residual activity [2] 97.5% | residual activity [3] 100% | residual activity [4] 99.5% | residual activity [5] 95% | residual activity [6] 100% | residual activity [7] 99.5% | residual activity [8] 95.5% | residual activity [9] 90% | residual activity [10] 100% | residual activity [11] 106% | residual activity [12] 96.5% | residual activity [13] 98%
